Values of other authors as cited in patent publication US20220233546A1, “Neurologist Formulated Nocturnal Nootropic Founded on a Novel Theory of Brain Aging” (priority 2022, published 2022).
Where two headings read alike, the source gives them in different places. Values belong to the compound of their own block, whether it stands above or below them.

How the values were obtained:
multiple sclerosis = settings: high doses; adjunctive therapy in multiple sclerosis
[1] = test system: young persons with multiple sclerosis
[2] = test system: neurohypophyseal hormone release
[3] = test system: persons with mild cognitive impairment
[4] = human; saffron extract 56 mg and 84 mg
[5] = daily dose of 200 to 2400 mg/day
plasma homocysteine = settings: supplementation, human
[6] = in vivo
[7] = test system: persons with Alzheimer's disease, Parkinson's disease, and multiple sclerosis; settings: combination therapy including Apigenin 100 mg
[8] = test system: amyotrophic lateral sclerosis (ALS)
[9] = test system: persons with mild cognitive impairment; remark: listed apart in the source
[10] = test system: children with autism spectrum disorder; settings: combination therapy including Luteolin 100 mg
[11] = 675 mg, at 4 weeks

SMILES: C=C1CC[C@H](O)C/C1=C/C=C1\CCC[C@]2(C)[C@@H]([C@H](C)CCCC(C)C)CC[C@@H]12 [cholecalciferol, Cholecalciferol]
brain lesions, disability and mobility (multiple sclerosis): fewer new brain lesions, reduced disability, and improved mobility

SMILES: O=C(O)CCCC[C@@H]1CCSS1 [(R)-Alpha Lipoic Acid]
safety and tolerability profile ([1]; human, in vivo): good safety and tolerability profile
reduction of yearly rate of brain atrophy ([1]; young persons with multiple sclerosis): ~70%

SMILES: COc1ccc2[nH]cc(CCNC(C)=O)c2c1 [melatonin, Melatonin]
neurohypophyseal hormone release ([2]; higher dose melatonin 5 mg): inhibited
neurohypophyseal hormone release ([2]; low dose melatonin 0.5 mg): augmented
cognition after a battery of neurocognitive testing [3]: significant improvement in cognition

bioavailability [4]: 40%
serum concentration of saffron isomers [4]: detected at a significant concentration
SMILES: CC(/C=C/C=C(\C)C(=O)O)=C\C=C\C=C(C)\C=C\C=C(/C)C(=O)O [Crocetin]

SMILES: O=C(O)CCCCC1CCSS1 (racemic) [ALA, Alpha Lipoic Acid]
safety and tolerability [5]: safe and well-tolerated

SMILES: COc1cc(/C=C/C(=O)CC(=O)/C=C/c2ccc(O)c(OC)c2)ccc1O [Curcumin]
working memory and attention (Buschke Selective Reminding Test, Brief Visual Memory Test-Revised, Trail Making A) (adults without dementia; adults without dementia): improves working memory and attention
post-interventional changes in pathological proteins (amyloid and tau) by positron emission tomography (adults without dementia; brain regions including the amygdala): significant decrease in pathological proteins

SMILES: C[N+](C)(C)CC(=O)O [Betaine]
plasma homocysteine concentrations (plasma homocysteine): significant reduction

bioavailability [6]: 50%
SMILES: C/C1=C2/[N-][C@H]([C@H](CC(N)=O)[C@@]2(C)CCC(=O)NC[C@H](C)OP(=O)([O-])O[C@H]2[C@@H](O)[C@@H](n3cnc4cc(C)c(C)cc43)O[C@@H]2CO)[C@]2(C)N=C(/C(C)=C3N=C(/C=C4N=C1[C@@H](CCC(N)=O)C\4(C)C)[C@@H](CCC(N)=O)[C@]\3(C)CC(N)=O)[C@@H](CCC(N)=O)[C@]2(C)CC(N)=O.[Co+2] (stereo in doubt) [cobalamin]

SMILES: O=c1cc(-c2ccc(O)cc2)oc2cc(O)cc(O)c12 [Apigenin]
clinical course and biomarkers including abnormal protein deposition [7]: trend towards clinical stabilization and reduction of specific biomarkers

SMILES: CC1=C(C=O)C(C)(C)CC=C1 [safranal, reference compound]
serum concentration of saffron isomers [4]: undetectable

SMILES: COc1cc(/C=C/c2ccc(O)cc2)cc(OC)c1 [Trans-Pterostilbene]
function and progression of neurodegenerative processes [8]: significantly improves function in and slows progression of neurodegenerative processes

SMILES: Nc1nc2ncc(CNc3ccc(C(=O)N[C@@H](CCC(=O)O)C(=O)O)cc3)nc2c(=O)[nH]1 [folic acid]
dementia-related biomarkers (beta-amyloid, homocysteine, S-adenosylmethionine, amyloid precursor protein mRNA expression) [9]: deceases dementia-related biomarkers
cognitive function (full scale IQ, verbal IQ, verbal comprehension index, working memory index) ([9]; pre- and post-intervention): improves cognitive function

SMILES: O=c1cc(-c2ccc(O)c(O)c2)oc2cc(O)cc(O)c12 [Luteolin]
adaptive functioning and Aberrant Behavior Checklist subscale scores [10]: improvement in adaptive functioning and reduction in Aberrant Behavior Checklist subscale scores
adverse effects [10]: no adverse effects

increase in CSF Threonate concentration [11]: 54%
increase in magnesium concentration ([11]; CSF): 15%
Threonate concentration in cerebrospinal fluid (CSF) (CSF): ~100 µM
Threonate concentration in plasma (plasma): approximately 20 μM
SMILES: O=C(O)[C@H](O)[C@@H](O)CO [L-Threonate]
